Assay results published in US6436945B2, “Substituted O6-benzyl-8-aza-guanines” (The United States of America as represented by the of …, priority 1994, dated 2002).
Where a chain is given by its changes, count along the chain named.

Assays:
[1] = target: T1, O^6-alkylguanine-DNA alkyltransferase (AGT) (Homo sapiens, UniProt P16455); experiment: AGT inactivation in intact HT29 cells; details: for ratio of ED50 values in cell-free extracts/intact cells: HT29
T1 sequence (P16455 1-207): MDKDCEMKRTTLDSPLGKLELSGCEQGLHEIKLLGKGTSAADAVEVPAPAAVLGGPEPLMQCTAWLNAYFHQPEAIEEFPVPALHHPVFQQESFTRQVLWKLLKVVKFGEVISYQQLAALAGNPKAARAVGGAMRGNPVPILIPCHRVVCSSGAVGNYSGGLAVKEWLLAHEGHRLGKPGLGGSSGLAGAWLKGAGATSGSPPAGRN
Experimental: (§1) The data represent the dose of compound required to produce 50% inactivation in cell-free extracts upon incubation for 30 min or in cells upon incubation for 4 hr.

[2] = target: T1, O^6-alkylguanine-DNA alkyltransferase (AGT); experiment: AGT inactivation in HT29 cell-free extract
Experimental: as §1

HT-29 colon cancer cells = experiment: Killing of HT-29 colon cancer cells by BCNU combined with AGT inactivators (colony formation); details: for enhancement of BCNU cytotoxicity, in words: statement covers HT29, DU-145 and MCF-71 cells (Tables 3-5); for Colony Formation per 1000 cells: HT-29
Experimental: (§2) Cells were treated for 2 h with AGT inactivator prior to exposure to BCNU.

[3] = system: MCF-71 breast cancer cells; experiment: Killing of MCF-71 breast cancer cells by BCNU combined with AGT inactivators (colony formation)
Experimental: as §2

[4] = system: DU-145 prostate cancer cells; experiment: Killing of DU-145 prostate cancer cells by BCNU combined with AGT inactivators (colony formation)
Experimental: as §2

Control alkyltransferase = target: T2, Control alkyltransferase (Homo sapiens, UniProt P16455); experiment: Inhibition of alkyltransferase proteins, control protein; format: biochemical; details: concentration to inactivate 50% of the activity in 30 minutes, read-out: ED50 value
T2 sequence (P16455 1-207): T1 sequence (P16455 1-207)

alkyltransferase P140A = target: T3, alkyltransferase P140A (Homo sapiens, UniProt P16455, P140A); experiment: Inhibition of mutant alkyltransferase proteins, P140A; format: biochemical
T3 construct: made in house
T3 sequence (P16455 1-207 P140A): T1 sequence (P16455 1-207) with P140A

[5] = target: T4, alkyltransferase P138A/P140A (Homo sapiens, UniProt P16455, P138A/P140A); experiment: Inhibition of mutant alkyltransferase proteins, P138A/P140A; format: biochemical
T4 construct: made in house
T4 sequence (P16455 1-207 P138A/P140A): T1 sequence (P16455 1-207) with P138A, P140A

alkyltransferase G156A = target: T5, alkyltransferase G156A (Homo sapiens, UniProt P16455, G156A); experiment: Inhibition of mutant alkyltransferase proteins, G156A; format: biochemical
T5 construct: made in house
T5 sequence (P16455 1-207 G156A): T1 sequence (P16455 1-207) with G156A

mutant alkyltransferase = experiment: Inactivation of mutant (resistant) alkyltransferase, overall statements; format: biochemical, human; details: intracellular concentration, extrapolated from Table 6
purified human AGT = target: T6, purified human AGT (Homo sapiens, UniProt P16455); experiment: Inactivation of purified human AGT; format: biochemical; details: Table 2 footnotes; read-out: ED50 with purified human AGT
T6 sequence (P16455 1-207): T1 sequence (P16455 1-207)

[6] = Behaviour in solution at pH 13 (noted with UV spectra); format: physicochemical
[7] = target: T1, O^6-alkylguanine-DNA alkyltransferase (AGT); set-up: endogenous in cells; host or cells: HT29 human colon tumor cells; details: text b35, comparison value of Table 1; cited from earlier work

Structure (SMILES) | melting point | EC50 [1] | EC50 [2] | EC50 (purified human AGT) | stability at pH 13 [6] | Colony Formation per 1000 cells (HT-29 colon cancer cells; inactivator 1 μM, BCNU 40 μM) | Colony Formation per 1000 cells ([4]; inactivator 1 μM, BCNU 40 μM) | also measured
Nc1nc(OCc2ccccc2)c2nc(C(F)(F)F)[nH]c2n1 [Compound 1e, O^6-Benzyl-8-trifluoromethylguanine] | 214 to 216 °C (dec.) | 0.25 µM | 0.4 µM |  |  |  |  | ratio of ED50 values in cell-free extracts/intact cells [1]: 1.6
Nc1nc(N)c(N)c(OCc2ccccc2)n1 [Compound 3c, 2,4,5-triamino-6-benzyloxypyrimidine] |  | 0.3 µM | 0.4 µM |  |  | 487 ± 32 per 1000 cells | 378 ± 60 per 1000 cells | enhancement of BCNU cytotoxicity, in words (HT-29 colon cancer cells; BCNU 40 μM): as effective as the 8-substituted O^6-bezylguanine derivatives and O^6-benzylguanine itself; Colony Formation per 1000 cells (HT-29 colon cancer cells; inactivator 10 μM, BCNU 40 μM): 3 ± 1 per 1000 cells; Colony Formation per 1000 cells (HT-29 colon cancer cells; inactivator 10 μM, BCNU none): 453 ± 59 per 1000 cells; Colony Formation per 1000 cells ([3]; inactivator 10 μM, BCNU 40 μM): 12 ± 4 per 1000 cells; Colony Formation per 1000 cells ([3]; inactivator 10 μM, BCNU none): 448 ± 55 per 1000 cells; Colony Formation per 1000 cells ([4]; inactivator 10 μM, BCNU 40 μM): 57 ± 7 per 1000 cells; Colony Formation per 1000 cells ([4]; inactivator 10 μM, BCNU none): 429 ± 101 per 1000 cells
Nc1nc(N)c(N=O)c(OCc2ccccc2)n1 [Compound 3d, 2,4-diamino-6-benzyloxy-5-nitrosopyrimidine] |  | 0.02 µM | 0.06 µM |  |  | 19 ± 4 per 1000 cells | 25 ± 4 per 1000 cells | EC50 (Control alkyltransferase): 0.05 µM; EC50 (alkyltransferase P140A; P140A, concentration to inactivate 50% of the activity in 30 minutes, read-out: ED50 value): 0.1 µM; EC50 ([5]; P138A/P140A, concentration to inactivate 50% of the activity in 30 minutes, read-out: ED50 value): 0.3 µM; EC50 (alkyltransferase G156A; G156A, concentration to inactivate 50% of the activity in 30 minutes, read-out: ED50 value): 1 µM; concentration needed to be effective at inactivating resistant alkyltransferase (mutant alkyltransferase): greater than 5 μM; AGT inactivating activity in HT29 cell-free extracts, in words ([2]; comparison): the most active AGT inactivators tested to date; enhancement of BCNU cytotoxicity, in words (HT-29 colon cancer cells; BCNU 40 μM): similarly effective at a 4-fold lower dose; Colony Formation per 1000 cells (HT-29 colon cancer cells; inactivator […], BCNU 40 μM): <1 per 1000 cells; Colony Formation per 1000 cells ([3]; inactivator […], BCNU 40 μM): 2 ± 1 per 1000 cells
Cn1c(C(F)(F)F)nc2c(OCc3ccccc3)nc(N)nc21 [Compound 7, O^6-Benzyl-8-trifluoromethyl-9-methylguanine] | 86 to 89 °C | 0.4 µM | 2.5 µM |  |  |  |  | ratio of ED50 values in cell-free extracts/intact cells [1]: 6.3; AGT inactivating activity in intact HT29 cells, in words ([1]; comparison): significantly higher than their activity in cell-free extracts
CC(C)(C)C(=O)OCn1nnc2c(OCc3ccccc3)nc(N)nc21 [Compound 8b, 8-Aza-O^6-benzyl-9-(pivaloyloxymethyl)guanine] | 119 to 120 °C | 0.23 µM | 0.28 µM | 4 µM | decomposes to 8-aza-O^6-benzylguanine |  |  | 
Nc1nc(OCc2ccccc2)c2nc[nH]c2n1 [O^6-benzylguanine, reference compound] |  |  |  |  |  | 277 ± 25 per 1000 cells | 299 ± 18 per 1000 cells | increase in resistance to inactivation (alkyltransferase P140A; P140A versus control protein): 20 fold; increase in resistance to inactivation ([5]; P138A/P140A versus control protein): 88 fold; increase in resistance to inactivation (alkyltransferase G156A; G156A versus control protein): 240 fold; concentration needed to be effective at inactivating resistant alkyltransferase (mutant alkyltransferase): greater than 200 μM; ED50 value for inactivation of AGT in HT29 cell extracts [7]: 200 µM; Colony Formation per 1000 cells (HT-29 colon cancer cells; inactivator 10 μM, BCNU 40 μM): 13 ± 6 per 1000 cells; Colony Formation per 1000 cells (HT-29 colon cancer cells; inactivator 10 μM, BCNU none): 431 ± 33 per 1000 cells; Colony Formation per 1000 cells (HT-29 colon cancer cells; inactivator […], BCNU 40 μM): 38 ± 15 per 1000 cells; Colony Formation per 1000 cells ([3]; inactivator 10 μM, BCNU 40 μM): 4 ± 2 per 1000 cells; Colony Formation per 1000 cells ([3]; inactivator 10 μM, BCNU none): 455 ± 63 per 1000 cells; Colony Formation per 1000 cells ([3]; inactivator […], BCNU 40 μM): 12 ± 6 per 1000 cells; Colony Formation per 1000 cells ([4]; inactivator 10 μM, BCNU 40 μM): 28 ± 5 per 1000 cells; Colony Formation per 1000 cells ([4]; inactivator 10 μM, BCNU none): 462 ± 68 per 1000 cells

Now from value to molecule, other results behind:

melting point | EC50 [1] | EC50 [2] | EC50 (purified human AGT) | stability at pH 13 [6] | Structure (SMILES) | Colony Formation per 1000 cells (HT-29 colon cancer cells; inactivator 1 μM, BCNU 40 μM) | Colony Formation per 1000 cells ([4]; inactivator 1 μM, BCNU 40 μM) | also measured
153 to 154 °C | 0.16 µM | 0.11 µM | 2 µM | decomposes to 8-aza-O^6-benzylguanine | CC(C)(C)C(=O)OCn1nnc2nc(N)nc(OCc3ccccc3)c21 [Compound 9, 8-Aza-O^6-benzyl-7-(pivaloyloxymethyl)guanine] |  |  | 
217 to 218 °C | 0.05 µM | 0.08 µM | > 100 µM | decomposes to O^6-benzyl-8-bromoguanine | CC(C)(C)C(=O)OCn1c(Br)nc2c(OCc3ccccc3)nc(N)nc21 [Compound 10b, O^6-Benzyl-8-bromo-9-(pivaloyloxymethyl)guanine] |  |  | 
 | 0.3 µM | 9 µM | > 100 µM | decomposes to O^6-benzylguanine | CC(C)(C)C(=O)OCn1cnc2nc(N)nc(OCc3ccccc3)c21 [Compound 12, O^6-benzyl-7-(pivaloyloxymethyl)guanine] |  |  | 
